System: Rattus norvegicus
Settings: short-term, duration: 28 days, oral, gavage, M, Sprague-Dawley

Cc1cccc(Nc2cc(Cl)nc(SCC(=O)O)n2)c1C [[4-Chloro-6-(2,3-xylidino)-2-pyrimidinylthio]acetic acid]
LOEL (Clinical chemistry_Free thyroxine): 6.25 mg/kg-day
LOEL (Clinical chemistry_Globulin): 6.25 mg/kg-day
NOEL (Clinical chemistry_Indirect bilirubin): 25 mg/kg-day
LOEL (Clinical chemistry_Sorbitol dehydrogenase): 6.25 mg/kg-day
NOEL (Clinical chemistry_T bilirubin): 25 mg/kg-day
LOEL (Clinical chemistry_Testosterone): 25 mg/kg-day
LOEL (Clinical chemistry_Thyroid stimulating hormone): 25 mg/kg-day
LOEL (Clinical chemistry_Total bile acids): 6.25 mg/kg-day
NOEL (Clinical chemistry_Total bilirubin): 25 mg/kg-day
LOEL (Clinical chemistry_Total protein): 6.25 mg/kg-day
LOEL (Clinical chemistry_Total thyroxine): 6.25 mg/kg-day
NOEL (Clinical chemistry_Total triiodothyronine): 25 mg/kg-day
NOEL (Clinical chemistry_Triglycerides): 25 mg/kg-day
LOEL (Gene expression_Acox1): 6.25 mg/kg-day
LOEL (Gene expression_Acyl-CoA oxidase): 6.25 mg/kg-day
LOEL (Gene expression_Altered sperm parameters): 6.25 mg/kg-day
LOEL (Gene expression_Cyp2b1): 6.25 mg/kg-day
LOEL (Gene expression_Cyp2b2): 6.25 mg/kg-day
LOEL (Gene expression_Cyp4a1): 6.25 mg/kg-day
NOEL (Hematology_Erythrocytes): 25 mg/kg-day
NOEL (Hematology_Hematocrit): 25 mg/kg-day
NOEL (Hematology_Hemoglobin): 25 mg/kg-day
NOEL (Hematology_Leukocytes): 25 mg/kg-day
NOEL (Hematology_Mean corpuscular hemoglobin concentration): 25 mg/kg-day
NOEL (Hematology_Mean corpuscular volume): 25 mg/kg-day
NOEL (Hematology_Platelets): 25 mg/kg-day
NOEL (Hematology_Reticulocytes): 25 mg/kg-day
NOEL (Hematology_S. neutrophils): 25 mg/kg-day
NOEL (Nonneoplastic effects_Bone marrow - Hypocellularity): 25 mg/kg-day
NOEL (Nonneoplastic effects_Epididymis - Duct, exfoliated germ cell): 25 mg/kg-day
NOEL (Nonneoplastic effects_Epididymis - Epithelium, apoptosis): 25 mg/kg-day
NOEL (Nonneoplastic effects_Epididymis - Hypospermia): 25 mg/kg-day
NOEL (Nonneoplastic effects_Forestomach - Epithelium, hyperplasia): 25 mg/kg-day
NOEL (Nonneoplastic effects_Forestomach - Inflammation, chronic active): 25 mg/kg-day
NOEL (Nonneoplastic effects_Kidney - Nephropathy, chronic progressive): 25 mg/kg-day
NOEL (Nonneoplastic effects_Kidney - Papilla, necrosis): 25 mg/kg-day
NOEL (Nonneoplastic effects_Liver - Hepatocyte, Necrosis): 25 mg/kg-day
LOEL (Nonneoplastic effects_Liver - Hepatocyte, cytoplasmic alteration): 6.25 mg/kg-day
LOEL (Nonneoplastic effects_Liver - Hepatocyte, hypertrophy): 6.25 mg/kg-day
NOEL (Nonneoplastic effects_Liver - Hepatocyte, vacuolization cytoplasmic): 25 mg/kg-day
NOEL (Nonneoplastic effects_Liver - Necrosis): 25 mg/kg-day
NOEL (Nonneoplastic effects_Lymph nodes - Mandibular, atrophy): 25 mg/kg-day
NOEL (Nonneoplastic effects_Lymph nodes - Mesenteric, atrophy): 25 mg/kg-day
NOEL (Nonneoplastic effects_Nose - Olfactory epithelium, degeneration): 25 mg/kg-day
NOEL (Nonneoplastic effects_Nose - Olfactory epithelium, hyperplasia): 25 mg/kg-day
NOEL (Nonneoplastic effects_Nose - Olfactory epithelium, inflammation, suppurative): 25 mg/kg-day
NOEL (Nonneoplastic effects_Nose - Olfactory epithelium, necrosis): 25 mg/kg-day
NOEL (Nonneoplastic effects_Nose - Respiratory epithelium, hyperplasia): 25 mg/kg-day
NOEL (Nonneoplastic effects_Nose - Respiratory epithelium, inflammation, chronic active): 25 mg/kg-day
NOEL (Nonneoplastic effects_Spleen - Atrophy): 25 mg/kg-day
NOEL (Nonneoplastic effects_Spleen - Extramedullary hematopoiesis, decreased): 25 mg/kg-day
NOEL (Nonneoplastic effects_Spleen - Extramedullary hematopoiesis, increased): 25 mg/kg-day
NOEL (Nonneoplastic effects_Stomach, forestomach - Epithelium, hyperplasia): 25 mg/kg-day
NOEL (Nonneoplastic effects_Testes - Germinal epithelium, degeneration): 25 mg/kg-day
NOEL (Nonneoplastic effects_Testes - Interstitial cell, atrophy): 25 mg/kg-day
NOEL (Nonneoplastic effects_Testes - Seminiferous tubule, spermatid retention): 25 mg/kg-day
NOEL (Nonneoplastic effects_Thymus - Atrophy): 25 mg/kg-day
NOEL (Nonneoplastic effects_Thymus - Lymphocyte, apoptosis): 25 mg/kg-day
NOEL (Nonneoplastic effects_Thyroid gland - Follicular cell hypertrophy): 25 mg/kg-day
LOEL (Organ weights_Heart - Absolute): 25 mg/kg-day
NOEL (Organ weights_Heart - Relative): 25 mg/kg-day
LOEL (Organ weights_Liver - Absolute): 6.25 mg/kg-day
LOEL (Organ weights_Liver - Relative): 6.25 mg/kg-day
NOEL (Organ weights_Lung - Absolute): 25 mg/kg-day
NOEL (Organ weights_Lung - Relative): 25 mg/kg-day
NOEL (Organ weights_R. adrenal gland - Absolute): 25 mg/kg-day
NOEL (Organ weights_R. adrenal gland - Relative): 25 mg/kg-day
LOEL (Organ weights_R. kidney - Absolute): 6.25 mg/kg-day
LOEL (Organ weights_R. kidney - Relative): 6.25 mg/kg-day
NOEL (Organ weights_R. testis - Absolute): 25 mg/kg-day
LOEL (Organ weights_Spleen - Absolute): 6.25 mg/kg-day
NOEL (Organ weights_Spleen - Relative): 25 mg/kg-day
NOEL (Organ weights_Thymus - Absolute): 25 mg/kg-day
NOEL (Organ weights_Thymus - Relative): 25 mg/kg-day
NOEL (Organ weights_Thyroid gland - Absolute): 25 mg/kg-day
LOEL (Reproductive toxicity_Altered sperm parameters): 6.25 mg/kg-day
NOEL (Survival rates): 25 mg/kg-day

Reference: EPA's ToxValDB 9.5
